Assay: not given

SMILES | logP
CN(C)C(=O)Oc1cccc(Cl)c1 | 2.26
CN(C)C(=O)Oc1ccc([N+](=O)[O-])cc1 | 1.54
Cc1ccc(OC(=O)N(C)C)cc1 | 2.1
CC(C)c1ccc(OC(=O)N(C)C)cc1 | 3.07
CCc1ccc(OC(=O)N(C)C)cc1 | 2.58
CNC(=O)Oc1cccc(C)c1 | 1.73
CCOc1ccc(OC(=O)NC)cc1 | 1.75
CNC(=O)Oc1ccc(I)cc1 | 2.34
CCOc1cccc(OC(=O)NC)c1 | 1.82
CNC(=O)Oc1ccc(F)cc1 | 1.35
CNC(=O)Oc1cccc([N+](=O)[O-])c1 | 1.37
CCc1cccc(OC(=O)NC)c1 | 2.23
CNC(=O)Oc1cccc(C#N)c1 | 1.01
CCC(=O)c1cccc(OC(=O)NC)c1 | 1.51
CNC(=O)Oc1cccc(N(C)C)c1 | 1.64
CCC(C)c1ccc(OC(=O)N(C)C)cc1 (stereo not drawn) | 3.6
CNC(=O)Oc1cccc(I)c1 | 2.33
CCc1ccc(OC(=O)NC)cc1 | 2.27
CNC(=O)Oc1ccc(OC)cc1 | 1.23
CN(C)C(=O)Oc1ccc(Cl)cc1 | 2.23
CNC(=O)Oc1cccc(OC)c1 | 1.34
CNC(=O)Oc1cccc(C(C)=O)c1 | 0.97
CC(=O)c1ccc(OC(=O)N(C)C)cc1 | 1.23
CN(C)C(=O)Oc1ccc(F)cc1 | 1.65
CNC(=O)Oc1ccc(C)cc1 | 1.73

Assay: method code SF-HPLC, from DOI: 10.1248/cpb.44.1338

SMILES | logP
CN(C)C(=O)Oc1cccc(C#N)c1 | 1.23
CCc1cccc(OC(=O)N(C)C)c1 | 2.47
CN(C)C(=O)Oc1cccc(N(C)C)c1 | 1.93
CN(C)C(=O)Oc1ccc(Br)cc1 | 2.46
CCCc1ccc(OC(=O)N(C)C)cc1 | 3.15
CN(C)C(=O)Oc1ccc(C#N)cc1 | 1.21
CN(C)C(=O)Oc1cccc([N+](=O)[O-])c1 | 1.56
CN(C)C(=O)Oc1cccc(F)c1 | 1.75

From the SangsterLogP compilation
